# Values of other authors in patent US20210145844A1, “COMBINATION THERAPY FOR NICOTINE ADDICTION” (Amygdala Neurosciences, Inc., priority 2018, published 2021).
# Columns and labels:
# [1] = target: T1, hMAO-A (Homo sapiens, UniProt P21397); conditions: read-out: IC50 hMAO-A
# T1 sequence (P21397 1-527): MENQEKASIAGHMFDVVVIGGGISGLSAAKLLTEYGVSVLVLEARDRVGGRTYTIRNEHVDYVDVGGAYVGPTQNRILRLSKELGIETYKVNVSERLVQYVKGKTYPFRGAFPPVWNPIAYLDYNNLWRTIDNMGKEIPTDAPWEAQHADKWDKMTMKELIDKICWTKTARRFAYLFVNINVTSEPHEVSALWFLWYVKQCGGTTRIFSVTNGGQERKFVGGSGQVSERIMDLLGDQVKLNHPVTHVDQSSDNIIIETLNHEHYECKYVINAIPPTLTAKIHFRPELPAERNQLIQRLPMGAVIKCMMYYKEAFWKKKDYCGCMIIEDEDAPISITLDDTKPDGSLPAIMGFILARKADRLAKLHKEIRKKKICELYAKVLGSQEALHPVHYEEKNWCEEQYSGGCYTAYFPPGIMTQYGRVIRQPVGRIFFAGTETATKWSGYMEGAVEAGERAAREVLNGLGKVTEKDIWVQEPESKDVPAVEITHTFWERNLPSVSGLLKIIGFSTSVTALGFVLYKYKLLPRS
# [2] = target: T2, hMAO-B (Homo sapiens, UniProt P27338); conditions: read-out: IC50 hMAO-B
# T2 sequence (P27338 1-520): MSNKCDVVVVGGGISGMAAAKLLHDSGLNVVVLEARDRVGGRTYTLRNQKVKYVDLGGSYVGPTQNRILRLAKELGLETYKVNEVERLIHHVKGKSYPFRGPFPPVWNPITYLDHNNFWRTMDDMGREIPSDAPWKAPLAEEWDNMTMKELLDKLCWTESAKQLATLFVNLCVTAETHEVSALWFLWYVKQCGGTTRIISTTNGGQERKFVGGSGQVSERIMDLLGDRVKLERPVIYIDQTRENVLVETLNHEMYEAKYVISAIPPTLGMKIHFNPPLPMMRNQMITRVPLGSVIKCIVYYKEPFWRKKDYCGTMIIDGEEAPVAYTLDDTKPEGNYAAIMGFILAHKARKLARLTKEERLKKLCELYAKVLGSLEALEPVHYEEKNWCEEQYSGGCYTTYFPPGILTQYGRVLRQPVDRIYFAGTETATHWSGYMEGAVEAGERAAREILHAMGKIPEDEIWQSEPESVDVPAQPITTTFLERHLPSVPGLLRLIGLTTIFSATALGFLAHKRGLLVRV
# [3] = test system: patients
# [4] = in vivo
# [5] = test system: rats
# [6] = target: T3, human ALDH-2 enzyme (Homo sapiens, UniProt P05091); conditions: read-out: IC50 ALDH-2
# T3 sequence (P05091 18-517): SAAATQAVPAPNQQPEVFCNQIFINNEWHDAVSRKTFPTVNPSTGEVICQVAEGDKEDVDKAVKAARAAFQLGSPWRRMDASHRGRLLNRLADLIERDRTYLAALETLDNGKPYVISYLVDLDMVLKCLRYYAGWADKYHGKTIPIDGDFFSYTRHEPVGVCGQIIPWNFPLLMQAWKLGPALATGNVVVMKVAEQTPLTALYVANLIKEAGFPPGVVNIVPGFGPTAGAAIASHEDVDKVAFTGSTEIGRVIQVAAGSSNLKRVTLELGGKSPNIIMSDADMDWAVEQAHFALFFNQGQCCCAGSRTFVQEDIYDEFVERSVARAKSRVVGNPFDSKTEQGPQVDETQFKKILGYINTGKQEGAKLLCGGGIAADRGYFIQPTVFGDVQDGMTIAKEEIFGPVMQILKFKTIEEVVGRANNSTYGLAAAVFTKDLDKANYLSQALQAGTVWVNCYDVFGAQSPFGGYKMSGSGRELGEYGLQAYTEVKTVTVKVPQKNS
IC50 [1] [µM],IC50 [2] [µM],Structure (SMILES),also measured
> 130,> 130,"Cc1cc(CNC(=O)c2c(Cl)cccc2Cl)ccc1-c1cc[nH]c(=O)c1 [(9), 2,6-dichloro-N-(3-methyl-4-(2-oxo-1,2-dihydropyridin-4-yl)benzyl)benzamide]",
> 130,> 130,"COCCOc1cc(Cl)c(C(=O)NCc2ccc(-c3cc[nH]c(=O)c3)cc2)c(Cl)c1 [(3), 2,6-dichloro-4-(2-methoxyethoxy)-N-(4-(2-oxo-1,2-dihydropyridin-4-yl)benzyl)benzamide]",
> 130,> 130,"O=C(NCc1ccc(-c2cc[nH]c(=O)c2)cc1F)c1c(Cl)cccc1Cl [(13), 2,6-dichloro-N-(2-fluoro-4-(2-oxo-1,2-dihydropyridin-4-yl)benzyl)benzamide]",
> 130,> 130,"Cc1cccc(C)c1C(=O)NCc1ccc(-c2cc[nH]c(=O)c2)cc1 [(6), 2,6-dimethyl-N-(4-(2-oxo-1,2-dihydropyridin-4-yl)benzyl)benzamide]",
> 130,> 130,"O=C(NCc1ccc(-c2cc[nH]c(=O)c2)cc1)c1cccc(F)c1Cl [(4), 2-chloro-3-fluoro-N-(4-(2-oxo-1,2-dihydropyridin-4-yl)benzyl)benzamide]",
> 130,> 130,"O=C(NCc1ccc(-c2cc[nH]c(=O)c2)cc1)c1c(F)ccc(F)c1Cl [(8), 2-chloro-3,6-difluoro-N-(4-(2-oxo-1,2-dihydropyridin-4-yl)benzyl)benzamide]",
> 130,> 130,"Cn1ccc(-c2ccc(CNC(=O)c3c(Cl)cccc3Cl)cc2)cc1=O [(10), 2,6-dichloro-N-(4-(1-methyl-2-oxo-1,2-dihydropyridin-4-yl)benzyl)benzamide]",
> 130,> 130,"Cc1cccc(Cl)c1C(=O)NCc1ccc(-c2cc[nH]c(=O)c2)cc1 [(5), 2-chloro-6-methyl-N-(4-(2-oxo-1,2-dihydropyridin-4-yl)benzyl)benzamide]",

# Second part, the molecule before the results:
Structure (SMILES),IC50 [1] [µM],IC50 [2] [µM],also measured
"Cc1cc(-c2ccc(CNC(=O)c3c(Cl)cccc3Cl)cc2)cc(=O)[nH]1 [(7), 2,6-dichloro-N-[4-(6-methyl-2-oxo-1,2-dihydro-pyridin-4-yl)-benzyl]-benzamide]",> 130,> 130,
"O=C(NCc1ccc(-c2cc[nH]c(=O)c2)cc1)c1c(F)cccc1F [(11), 2,6-difluoro-N-(4-(2-oxo-1,2-dihydropyridin-4-yl)benzyl)benzamide]",> 130,> 130,
"O=C(O)C(O)C(O)C(=O)O.c1cnc2cc3c(cc2n1)[C@@H]1CNC[C@H]3C1 [varenicline, 7,8,9,10-tetrahydro-6,10-methano-6H-pyrazino[2,3-h][3]benzazepine]",,,"varenicline discontinuation due to gastrointestinal side-effects ([3]; estimated): 2%-8%; incidence of nausea at larger doses ([3]; larger doses, placebo 10%): 30%; mild nausea, share of patients ([3]; most common side effect, smoking cessation use): ~30 % of patients; incidence of nausea at smaller doses ([3]; smaller doses, placebo 11%): 16%"
"O=C(NCc1ccc(-c2cc(=O)[nH]cc2F)cc1)c1c(Cl)cccc1Cl [(14), 2,6-dichloro-N-(4-(5-fluoro-2-oxo-1,2-dihydropyridin-4-yl)benzyl)benzamide]",> 130,> 130,
"O=C(NCc1ccc(-c2cc[nH]c(=O)c2)cc1)c1c(F)cccc1Cl [(12), 2-chloro-6-fluoro-N-(4-(2-oxo-1,2-dihydropyridin-4-yl)benzyl)benzamide]",> 130,> 130,
"O=C(NCc1ccc(-c2cc[nH]c(=O)c2)cc1)c1c(Cl)cccc1Cl [Compound (1), 2,6-dichloro-N-[4-(2-oxo-1,2-dihydro-pyridin-4-yl)-benzyl]-benzamide]",> 130,> 130,intake of cocaine and alcohol [4]: reduce intake of cocaine and alcohol; self-administration of nicotine [5]: suppress self-administration of nicotine in rats
"O=C(NCc1ccc(-c2ccn(COP(=O)(O)O)c(=O)c2)cc1)c1c(Cl)cccc1Cl [Compound (2), phosphoric acid mono-(4-{4-[(2,6-dichloro-benzoylamino)-methyl]-phenyl}-2-oxo-2H-pyridin-1-ylmethyl) ester]",> 130,> 130,IC50 [6]: > 10 µM; in vivo metabolism of prodrug: undergoes in vivo cleavage of the phosphoric acid group to yield compound (1)
